Reference: PubChem BioAssay AID2060494 (Molecular Pharmacology Branch, DTP, NCI, 2025)
pIC50: −log10 of the molar value.

System: 435261-313-R-J1-PDC complex spheroid viability
Assay: Anticancer human tumor 435261-313-R-J1-PDC patient-derived colon adenocarcinoma cell line growth inhibition [GQUAD]
Settings: for pIC50: curve of first compound; for viability, T/C: stronger effect = lower value
Method in brief: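 Multi-cell-type spheroids of tumor cells with HUVEC and mesenchymal stem cells, treated with drug combinations. Concentrations descend in half-log steps from near clinical Cmax, or from 10 microM where Cmax is unknown; viability read-out.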

[1] = second compound 0.0316 µM, first compound 0.0316 µM
[2] = second compound 0.0316 µM, first compound 0.1 µM
[3] = second compound 0.0316 µM, first compound 0.316 µM
[4] = second compound 0.0316 µM, first compound 1 µM
[5] = second compound 0.0316 µM, first compound 3.16 µM
[6] = second compound 0.0316 µM, first compound 10 µM
[7] = second compound 0.1 µM, first compound 0.0316 µM
[8] = second compound 0.1 µM, first compound 0.1 µM
[9] = second compound 0.1 µM, first compound 0.316 µM
[10] = second compound 0.1 µM, first compound 1 µM
[11] = second compound 0.1 µM, first compound 3.16 µM
[12] = second compound 0.1 µM, first compound 10 µM
[13] = second compound 0.316 µM, first compound 0.0316 µM
[14] = second compound 0.316 µM, first compound 0.1 µM
[15] = second compound 0.316 µM, first compound 0.316 µM
[16] = second compound 0.316 µM, first compound 1 µM
[17] = second compound 0.316 µM, first compound 3.16 µM
[18] = second compound 0.316 µM, first compound 10 µM
[19] = second compound 1 µM, first compound 0.0316 µM
[20] = second compound 1 µM, first compound 0.1 µM
[21] = second compound 1 µM, first compound 0.316 µM
[22] = second compound 1 µM, first compound 1 µM
[23] = second compound 1 µM, first compound 3.16 µM
[24] = second compound 1 µM, first compound 10 µM
[25] = second compound 3.16 µM, first compound 0.0316 µM
[26] = second compound 3.16 µM, first compound 0.1 µM
[27] = second compound 3.16 µM, first compound 0.316 µM
[28] = second compound 3.16 µM, first compound 1 µM
[29] = second compound 3.16 µM, first compound 3.16 µM
[30] = second compound 3.16 µM, first compound 10 µM
[31] = second compound 10 µM, first compound 0.0316 µM
[32] = second compound 10 µM, first compound 0.1 µM
[33] = second compound 10 µM, first compound 0.316 µM
[34] = second compound 10 µM, first compound 1 µM
[35] = second compound 10 µM, first compound 3.16 µM
[36] = second compound 10 µM, first compound 10 µM
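Also: spheroids exposed to the agents for seven days before readout.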
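For viability, T/C in this document: percent of vehicle control viability with DMSO wells as 100%.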

SMILES: COc1ncnc(C2CC2)c1-c1ncc2cnn(Cc3ccc(-c4nc(C(F)(F)F)cn4C(C)C)cc3)c2n1 + CN(C)c1ccc(Nc2c3ccc(NC(=O)CCN4CCCC4)cc3nc3cc(NC(=O)CCN4CCCC4)ccc23)cc1
- pIC50 (second compound 0.0316 µM): < 5.00
- pIC50 (second compound 0.1 µM): < 5.00
- pIC50 (second compound 0.316 µM): < 5.00
- pIC50 (second compound 1 µM): < 5.00
- pIC50 (second compound 3.16 µM): 5.50
- pIC50 (second compound 10 µM): > 7.50
- viability, T/C [1]: 101%
- viability, T/C [2]: 94.3%
- viability, T/C [3]: 90%
- viability, T/C [4]: 84.2%
- viability, T/C [5]: 85.9%
- viability, T/C [6]: 75.1%
- viability, T/C [7]: 103%
- viability, T/C [8]: 89.6%
- viability, T/C [9]: 113%
- viability, T/C [10]: 94%
- viability, T/C [11]: 111%
- viability, T/C [12]: 91.8%
- viability, T/C [13]: 90.7%
- viability, T/C [14]: 94%
- viability, T/C [15]: 80.9%
- viability, T/C [16]: 64%
- viability, T/C [17]: 75.4%
- viability, T/C [18]: 80.9%
- viability, T/C [19]: 82.6%
- viability, T/C [20]: 70.8%
- viability, T/C [21]: 76.4%
- viability, T/C [22]: 69.8%
- viability, T/C [23]: 78.6%
- viability, T/C [24]: 77.6%
- viability, T/C [25]: 50.5%
- viability, T/C [26]: 74.3%
- viability, T/C [27]: 69%
- viability, T/C [28]: 41.2%
- viability, T/C [29]: 56.9%
- viability, T/C [30]: 30.2%
- viability, T/C [31]: 31.4%
- viability, T/C [32]: 33.6%
- viability, T/C [33]: 28.8%
- viability, T/C [34]: 27.9%
- viability, T/C [35]: 32.9%
- viability, T/C [36]: 10.7%

SMILES: Cc1[nH]c2ccccc2c1CCNCc1ccc(/C=C/C(=O)NO)cc1 + CN(C)c1ccc(Nc2c3ccc(NC(=O)CCN4CCCC4)cc3nc3cc(NC(=O)CCN4CCCC4)ccc23)cc1
- pIC50 (second compound 0.0316 µM): 7.10
- pIC50 (second compound 0.1 µM): 7.25
- pIC50 (second compound 0.316 µM): 7.13
- pIC50 (second compound 1 µM): 7.21
- pIC50 (second compound 3.16 µM): 7.59
- pIC50 (second compound 10 µM): > 9.00
- viability, T/C (second compound 0.0316 µM, first compound 0.000999 µM): 84.5%
- viability, T/C (second compound 0.0316 µM, first compound 0.00316 µM): 86%
- viability, T/C (second compound 0.0316 µM, first compound 0.00999 µM): 95%
- viability, T/C [1]: 69.2%
- viability, T/C (second compound 0.0316 µM, first compound 0.0999 µM): 45.9%
- viability, T/C [3]: 9.48%
- viability, T/C (second compound 0.1 µM, first compound 0.000999 µM): 134%
- viability, T/C (second compound 0.1 µM, first compound 0.00316 µM): 96.6%
- viability, T/C (second compound 0.1 µM, first compound 0.00999 µM): 79.4%
- viability, T/C [7]: 59.7%
- viability, T/C (second compound 0.1 µM, first compound 0.0999 µM): 50.8%
- viability, T/C [9]: 11%
- viability, T/C (second compound 0.316 µM, first compound 0.000999 µM): 104%
- viability, T/C (second compound 0.316 µM, first compound 0.00316 µM): 99.5%
- viability, T/C (second compound 0.316 µM, first compound 0.00999 µM): 91.4%
- viability, T/C [13]: 69.4%
- viability, T/C (second compound 0.316 µM, first compound 0.0999 µM): 43.8%
- viability, T/C [15]: 9.1%
- viability, T/C (second compound 1 µM, first compound 0.000999 µM): 76.7%
- viability, T/C (second compound 1 µM, first compound 0.00316 µM): 74.3%
- viability, T/C (second compound 1 µM, first compound 0.00999 µM): 58.5%
- viability, T/C [19]: 62.1%
- viability, T/C (second compound 1 µM, first compound 0.0999 µM): 45.5%
- viability, T/C [21]: 10.1%
- viability, T/C (second compound 3.16 µM, first compound 0.000999 µM): 119%
- viability, T/C (second compound 3.16 µM, first compound 0.00316 µM): 79.2%
- viability, T/C (second compound 3.16 µM, first compound 0.00999 µM): 62.7%
- viability, T/C [25]: 56.2%
- viability, T/C (second compound 3.16 µM, first compound 0.0999 µM): 28.5%
- viability, T/C [27]: 6.97%
- viability, T/C (second compound 10 µM, first compound 0.000999 µM): 44.3%
- viability, T/C (second compound 10 µM, first compound 0.00316 µM): 49.4%
- viability, T/C (second compound 10 µM, first compound 0.00999 µM): 23.3%
- viability, T/C [31]: 18.3%
- viability, T/C (second compound 10 µM, first compound 0.0999 µM): 22.6%
- viability, T/C [33]: 4.75%

SMILES: O=c1[nH]cc(F)c(=O)[nH]1 + CN(C)c1ccc(Nc2c3ccc(NC(=O)CCN4CCCC4)cc3nc3cc(NC(=O)CCN4CCCC4)ccc23)cc1
- pIC50 (second compound 0.0316 µM): < 5.00
- pIC50 (second compound 0.1 µM): < 5.00
- pIC50 (second compound 0.316 µM): < 5.00
- pIC50 (second compound 1 µM): < 5.00
- pIC50 (second compound 3.16 µM): < 5.00
- pIC50 (second compound 10 µM): > 7.50
- viability, T/C [1]: 118%
- viability, T/C [2]: 102%
- viability, T/C [3]: 105%
- viability, T/C [4]: 90.8%
- viability, T/C [5]: 71.6%
- viability, T/C [6]: 99.9%
- viability, T/C [7]: 117%
- viability, T/C [8]: 114%
- viability, T/C [9]: 126%
- viability, T/C [10]: 86.8%
- viability, T/C [11]: 86.9%
- viability, T/C [12]: 78.6%
- viability, T/C [13]: 104%
- viability, T/C [14]: 103%
- viability, T/C [15]: 87.4%
- viability, T/C [16]: 97.2%
- viability, T/C [17]: 111%
- viability, T/C [18]: 85.8%
- viability, T/C [19]: 118%
- viability, T/C [20]: 91.8%
- viability, T/C [21]: 98.5%
- viability, T/C [22]: 104%
- viability, T/C [23]: 81.8%
- viability, T/C [24]: 73.5%
- viability, T/C [25]: 73.3%
- viability, T/C [26]: 78.1%
- viability, T/C [27]: 73.4%
- viability, T/C [28]: 63.3%
- viability, T/C [29]: 70.2%
- viability, T/C [30]: 60.4%
- viability, T/C [31]: 29.4%
- viability, T/C [32]: 66%
- viability, T/C [33]: 41.8%
- viability, T/C [34]: 40%
- viability, T/C [35]: 43.3%
- viability, T/C [36]: 31.4%
